Laboratory results from US10980850B2, “Use of IAP inhibitor and oncolytic virus in preparation of anti-tumor drug” (Guangzhou Virotech Pharmaceutical Co., Ltd., priority 2016, dated 2021).

Key:
pancreatic cancer = details: 10 μmol/L alone; cells without drugs 17%; cited from earlier work
[1] = test system: human colorectal cancer cell line HCT116; experiment: MTT survival rate of HCT116 cells (LCL161/Birinapant, M1 virus); type: cell-based; details: MTT 72 hours, 5 μM LCL161, MOI of M1 not stated (FIG. 2(A))
Method: a) Inoculation of cells and administration treatment: cells in the exponential growth phase were selected and added into a DMEM complete culture medium (containing 10% fetal bovine serum and 1% penicillin/streptomycin (Life Technologies)) to prepare a cell suspension. The cells were inoculated into a 96-well culture plate at a density of 4×10^3/well. After 12 hours, the cells were completely adherent to the wells. The experiment was divided into a control group and a single drug group (using 5 μM LCL161 or Birinapant alone), a group infected with M1 and a group treated with LCL161/M1 or Birinapant/M1. In M1-containing assays, virus was provided at varying MOI. The concentration of LCL161 or Birinapant was 5 μM • b) Reaction of MTT with succinate dehydrogenase in the cells: 72 hours after culture, 20 μl MTT (5 mg/ml) was added into each well, and was incubated for a further 4 hours. After incubation, granular blue and purple formazan crystals formed in the living cells were observed by microscopic examination. • c) Dissolution of formazan particles: those cultures having cells with formazan crystals were further processed as follows. […] The optical density (OD value) of each well was detected in an enzyme linked detector at a wavelength of 570 nm. […] The calculated survival rate of the cells=OD value of the drug treatment group/OD value of the control group×100%. […]

[2] = test system: transplantable tumor of HCT116 cancer strain; experiment: Transplantable tumor of HCT116 in nude mice; type: in vivo, BALB/c nude mice; details: HCT116 tumors
Method: (§1) The present experiment was performed as a randomized and single-blinded trial. 5×10^6 HCT116 or 1×10^7 Huh7 cells were subcutaneously injected into dorsa of 4-week-aged BALB/c nude mice. When the size of tumors reached 50 mm^3, the mice were divided into groups, including an untreated control group (Control), a group treated with LCL161 alone (i.p. 20 mg/kg/d), a group infected with M1 alone (transplantable tumor of HCT116 cancer strain was injected with M1 virus via tail vein (2×10^6 PFU/time), and transplantable tumor of Huh7 cancer strain was injected with M1 virus via tail vein (5×10^5 PFU/time)) and a group treated with LCL161/M1 (LCL161 and M1 virus were administered in the same way at the same dose), and four injections was performed continuously (for HCT116, injection was conducted on day 5, day 6, day 7, and day 8; for Huh7, injection was conducted on day 10, day 11, day 12, and day 13). The weight, length and width of the tumor were measured every two days, and the volume of the tumor was calculated according to the formula: (length×width^2)/2. After measuring the volume of the tumor, one way ANOVA statistics was carried out, wherein *** indicates p<0.001, ** indicates p<0.01, and * indicates p<0.05.

[3] = test system: transplantable tumor of Huh7 cancer strain; experiment: Transplantable tumor of Huh7 in nude mice; type: in vivo, BALB/c nude mice; details: Huh7 tumors; LCL161 i.p. 20 mg/kg/d; M1 tail vein 5×10^5 PFU/time; four injections day 10-13
Method: as §1

Caspase 3/7, 8, and 9 [4] = experiment: Caspase activity (chemiluminescence/MTT) in HCT116 cells; type: cell-based, human; details: M1 1 MOI, LCL161 5 μM, 72 hours, vs control
Method: (§2) The cells in the exponential growth phase were selected and added into a DMEM complete culture medium (containing 10% fetal bovine serum and 1% penicillin/streptomycin (Life Technologies)) to prepare a cell suspension. The cells were inoculated into a 96-well culture plate at a density of 4×10^3/well. After 12 hours, the cells were completely adherent to the walls of the culture plate. In this experiment, cultures were divided into a control group, a single drug group (using LCL161 alone), a group infected with M1, and a group treated with combined LCL161/M1. The doses used were as follows: cells were infected with M1 at 1 MOI ([…]) or 0.1 MOI (Huh7 cells), and LCL161 was added at a concentration of 5 μM. Each of the above mentioned treatment groups was divided in four for detecting MTT and the activities of Caspase 3/7, 8 and 9. 72 hours after treatment, the reagent for detecting Caspase3/7, 8 and 9 was added into each well on the basis of the volume, and the resulting wells were placed into the incubator for a further half hour. The liquid was absorbed into the opaque 96 well plate for measuring the chemical luminous intensity by a microplate reader. Meanwhile, MTT was detected to calculate the survival rate of the cells. The activity of Caspase was standardized by the ratio of chemiluminescent value to MTT value.

Caspase 3/7, 8, and 9 [5] = experiment: Caspase activity (chemiluminescence/MTT) in Huh7 cells; type: cell-based, human; details: M1 0.1 MOI, LCL161 5 μM, 72 hours, vs control
Method: as §2

For `Nc1ccn([C@@H]2O[C@H](CO)[C@@H](O)C2(F)F)c(=O)n1` [Gemcitabine], the apoptosis rate (pancreatic cancer) is listed as 58%.

With `CN[C@@H](C)C(=O)N[C@H](C(=O)N1CCC[C@H]1c1nc(C(=O)c2ccc(F)cc2)cs1)C1CCCCC1` [LCL161] the survival rate [1] was 92.6%, the “reduction in tumor volume as compared with the control group” value ([2]; LCL161 i.p. 20 mg/kg/d, M1 tail vein 2×10^6 PFU/time, four injections day 5-8) was 29.15% and the “tumor volume (in words)” value ([2]; same dosing, vs control group) was “only a slight reduction in tumor volume”. For the same compound, the “reduction in tumor volume as compared with the control group” value [3] was 18.1%, the “activities of Caspase 3/7, 8, and 9” value (Caspase 3/7, 8, and 9 [4]) was “only slightly up-regulated” and the “activities of Caspase 3/7, 8, and 9” value (Caspase 3/7, 8, and 9 [5]) was “only slightly up-regulated”.
